Source: patent US20230097866A1, “BACTERIAL TOPOISOMERASE INHIBITORS DERIVED FROM ISOMANNIDE” (Ohio State Innovation Foundation, priority 2020, published 2023)
Converted amounts (≈) assume the structure as drawn.

Key:
[1] = biological target: T1, hERG Human Potassium Ion Channel (Homo sapiens, UniProt Q12809); assay: hERG QPatch CiPA assay; assay type: cell-based; conditions: mean, duplicate
T1 construct: expressed in transfected cells
Text: (§1) Early drug discovery programs commonly assess hERG inhibition as the only indicator of potential cardiovascular safety concerns. Researchers have recently recommended a more rigorous evaluation of multiple cardiac ion channels to provide a more comprehensive cardiovascular risk assessment (Fermini, B., et al., A New Perspective in the Field of Cardiac Safety Testing through the Comprehensive In Vitro Proarrhythmia Assay Paradigm. J. Biomolec. Screening 2016, 21, 1-11). Given the promising initial results for 6, further evaluation was undertaken (in duplicate) in a Comprehensive in vitro Proarrhythmia Assay (CiPA) eight assay panel run on the QPatch HT (Sophion, Denmark) automated patch clamp system at three concentrations (3, 30, and 100 μM). All data were filtered for seal quality, seal drop, and current amplitude. A stock solution of the test compound at 30 mM concentration was prepared in DMSO.
(§2) The parameters measured were the maximum tail current evoked on stepping to 40 mV and ramping back to −80 mV from the test pulse. The peak current amplitude was calculated before and after compound addition and the amount of block was assessed by dividing the Test compound current amplitude by the Control current amplitude. Control is the mean hERG current amplitude collected 15 seconds at the end of the control; Test Compound is the mean hERG current amplitude collected in the presence of test compound at each concentration. The positive control was E-4031.

CYP1A2 = biological target: T2, CYP1A2 (Homo sapiens, UniProt P05177); assay type: in vitro ADME; conditions: 10 μM; human liver microsomes
T2 construct: incubated with human liver microsomes (mixed gender, pool of 50 donors, 0.1 mg/mL); from tissue; host or cells: human liver microsomes, pool of 50 donors
Procedure: (§3) CYP450 inhibition assays was conducted using individual enzyme substrates and inhibitors instead of a cocktail to avoid interferences. CYP450 isoforms tested included the following: CYP1A2, CYP2B6, CYP2C8, CYP2C9, CYP2C19, CYP2D6, and CYP3A4. Each test compound was screened at a final concentration of 10 μM. Each test compound was incubated with human liver microsomes (mixed gender, pool of 50 donors, 0.1 mg/mL), CYP450-selective probe substrates, and co-factors (NADPH, MgCl2) in phosphate buffer (pH 7.4) for 10-30 min in a 96-well plate at 37° C. The reactions were stopped by transferring the reaction mixture to acetonitrile/methanol. Samples were mixed and centrifuged, and the supernatants analyzed by LC-MS/MS to quantify percent inhibition relative to vehicle control.

[2] = biological target: Norepinephrine transporter (Homo sapiens, UniProt P23975); assay: Off-target safety panel, norepinephrine transporter; assay type: binding; conditions: duplicate, read-out: % Inhibition at 100 μM conc., Norepinephrine transporter
Procedure: Potential off-target pharmacology for compound 6 was also evaluated by screening in duplicate against a panel (Bowes, J., et al., Reducing Safety-Related Drug Attrition: The Use of in vitro Pharmacological Profiling. Nat. Rev. Drug Disc. 2012, 11, 909-922) of 44 receptors, enzymes, etc. Of the 44 potential targets, only five were inhibited by >50% at a concentration of 100 μM (Table 7).

S. aureus ATCC 29213 = assay: microbe, parasite or virus in culture; assay type: cell-based; conditions: Staphylococcus aureus, ATCC29213, read-out: S. aureus ATCC 29213 MIC (n = 2); CLSI agar dilution
Procedure: In order to determine the spontaneous mutation frequency of investigational agents (Table 4), the MIC was first determined using the agar dilution method as recommended by the Clinical and Laboratory Standards Institute.
Triplicate independent inocula of S. aureus ATCC 29213 were evaluated.

CYP2C19 = biological target: T3, CYP2C19 (Homo sapiens, UniProt P33261); assay: CYP450 inhibition in human liver microsomes, CYP2C19; assay type: in vitro ADME; conditions: 10 μM
T3 construct: incubated with human liver microsomes (mixed gender, pool of 50 donors, 0.1 mg/mL); from tissue; host or cells: human liver microsomes, pool of 50 donors
Procedure: as §3

[3] = biological target: T4, Cav1.2 (L-type) Human Calcium Ion Channel (Homo sapiens, UniProt Q13936); assay: Cav1.2 (L-type) QPatch CiPA assay; assay type: cell-based; conditions: mean, duplicate
T4 construct: expressed in transfected cells
T4 sequence (Q13936 whole entry): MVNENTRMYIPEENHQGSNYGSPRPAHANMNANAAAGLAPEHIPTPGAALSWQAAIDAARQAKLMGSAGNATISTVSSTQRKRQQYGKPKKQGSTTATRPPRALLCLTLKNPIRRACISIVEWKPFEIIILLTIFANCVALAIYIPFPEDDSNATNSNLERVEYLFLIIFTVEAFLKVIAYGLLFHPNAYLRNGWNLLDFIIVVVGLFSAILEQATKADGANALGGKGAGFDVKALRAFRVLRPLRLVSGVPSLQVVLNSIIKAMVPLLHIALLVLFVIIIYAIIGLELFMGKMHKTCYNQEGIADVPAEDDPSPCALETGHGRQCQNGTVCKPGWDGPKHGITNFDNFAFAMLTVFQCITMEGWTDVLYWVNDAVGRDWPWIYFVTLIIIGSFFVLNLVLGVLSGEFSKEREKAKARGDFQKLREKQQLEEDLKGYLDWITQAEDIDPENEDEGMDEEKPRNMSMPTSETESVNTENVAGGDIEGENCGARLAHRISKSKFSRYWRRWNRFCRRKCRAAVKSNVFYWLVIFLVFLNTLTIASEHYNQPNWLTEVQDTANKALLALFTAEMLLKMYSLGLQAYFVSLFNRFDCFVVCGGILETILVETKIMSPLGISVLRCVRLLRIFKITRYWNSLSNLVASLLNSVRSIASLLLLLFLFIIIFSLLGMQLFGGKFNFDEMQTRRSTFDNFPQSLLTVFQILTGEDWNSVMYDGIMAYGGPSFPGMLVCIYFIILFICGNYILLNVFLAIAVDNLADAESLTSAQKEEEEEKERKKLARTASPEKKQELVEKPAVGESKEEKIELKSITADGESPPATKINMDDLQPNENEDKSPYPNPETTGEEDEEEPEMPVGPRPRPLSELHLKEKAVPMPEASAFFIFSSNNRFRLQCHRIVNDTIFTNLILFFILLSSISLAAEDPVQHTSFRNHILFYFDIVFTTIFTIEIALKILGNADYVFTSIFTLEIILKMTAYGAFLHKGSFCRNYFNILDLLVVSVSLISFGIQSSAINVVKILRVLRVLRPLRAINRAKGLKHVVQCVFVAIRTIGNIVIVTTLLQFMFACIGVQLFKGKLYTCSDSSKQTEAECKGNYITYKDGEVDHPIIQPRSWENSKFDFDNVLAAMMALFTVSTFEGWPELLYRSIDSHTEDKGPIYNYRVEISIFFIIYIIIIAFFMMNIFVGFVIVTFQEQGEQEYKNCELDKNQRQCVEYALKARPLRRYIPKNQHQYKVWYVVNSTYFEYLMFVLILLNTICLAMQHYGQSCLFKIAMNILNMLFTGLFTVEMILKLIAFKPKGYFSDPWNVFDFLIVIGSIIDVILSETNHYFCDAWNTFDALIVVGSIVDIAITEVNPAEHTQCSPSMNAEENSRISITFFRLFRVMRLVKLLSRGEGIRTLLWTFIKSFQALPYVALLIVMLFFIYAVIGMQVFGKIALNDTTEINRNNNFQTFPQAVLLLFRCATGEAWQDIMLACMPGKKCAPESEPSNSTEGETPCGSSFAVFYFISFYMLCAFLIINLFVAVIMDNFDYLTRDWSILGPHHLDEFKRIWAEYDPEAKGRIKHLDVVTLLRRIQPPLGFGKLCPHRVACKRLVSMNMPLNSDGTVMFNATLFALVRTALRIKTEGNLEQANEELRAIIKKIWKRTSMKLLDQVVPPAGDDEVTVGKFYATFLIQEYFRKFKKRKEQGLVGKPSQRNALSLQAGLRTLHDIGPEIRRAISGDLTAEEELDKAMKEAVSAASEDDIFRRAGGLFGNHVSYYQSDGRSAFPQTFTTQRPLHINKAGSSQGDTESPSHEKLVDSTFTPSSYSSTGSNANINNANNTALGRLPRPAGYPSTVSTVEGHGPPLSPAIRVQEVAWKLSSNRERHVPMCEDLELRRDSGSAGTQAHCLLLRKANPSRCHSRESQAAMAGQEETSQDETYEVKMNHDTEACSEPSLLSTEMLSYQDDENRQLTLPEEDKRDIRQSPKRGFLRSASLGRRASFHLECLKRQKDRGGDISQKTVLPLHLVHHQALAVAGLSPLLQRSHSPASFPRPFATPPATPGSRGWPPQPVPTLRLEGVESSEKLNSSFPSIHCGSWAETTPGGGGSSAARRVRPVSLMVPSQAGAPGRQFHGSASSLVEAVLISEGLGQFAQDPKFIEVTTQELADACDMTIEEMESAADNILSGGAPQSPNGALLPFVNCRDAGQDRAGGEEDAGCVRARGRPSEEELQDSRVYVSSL
T4 sequence (Q08289 whole entry partner): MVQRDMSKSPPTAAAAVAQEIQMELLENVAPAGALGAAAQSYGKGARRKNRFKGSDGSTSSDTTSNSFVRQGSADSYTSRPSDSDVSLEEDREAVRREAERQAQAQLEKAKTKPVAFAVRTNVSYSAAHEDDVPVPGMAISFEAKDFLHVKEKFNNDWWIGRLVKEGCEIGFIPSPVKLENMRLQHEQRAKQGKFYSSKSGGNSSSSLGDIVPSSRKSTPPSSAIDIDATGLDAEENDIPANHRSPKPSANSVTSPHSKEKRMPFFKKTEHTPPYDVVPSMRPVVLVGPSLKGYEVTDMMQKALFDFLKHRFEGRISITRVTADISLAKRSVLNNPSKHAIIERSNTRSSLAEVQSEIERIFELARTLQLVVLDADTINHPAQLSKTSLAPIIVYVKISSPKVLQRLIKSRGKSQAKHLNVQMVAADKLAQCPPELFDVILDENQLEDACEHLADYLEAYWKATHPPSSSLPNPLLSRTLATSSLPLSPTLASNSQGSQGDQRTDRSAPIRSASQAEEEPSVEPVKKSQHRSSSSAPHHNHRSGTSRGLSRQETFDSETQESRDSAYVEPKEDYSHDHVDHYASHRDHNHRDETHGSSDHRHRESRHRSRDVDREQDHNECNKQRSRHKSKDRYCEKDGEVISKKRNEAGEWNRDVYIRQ
T4 sequence (P54289 25-946 partner limits assumed): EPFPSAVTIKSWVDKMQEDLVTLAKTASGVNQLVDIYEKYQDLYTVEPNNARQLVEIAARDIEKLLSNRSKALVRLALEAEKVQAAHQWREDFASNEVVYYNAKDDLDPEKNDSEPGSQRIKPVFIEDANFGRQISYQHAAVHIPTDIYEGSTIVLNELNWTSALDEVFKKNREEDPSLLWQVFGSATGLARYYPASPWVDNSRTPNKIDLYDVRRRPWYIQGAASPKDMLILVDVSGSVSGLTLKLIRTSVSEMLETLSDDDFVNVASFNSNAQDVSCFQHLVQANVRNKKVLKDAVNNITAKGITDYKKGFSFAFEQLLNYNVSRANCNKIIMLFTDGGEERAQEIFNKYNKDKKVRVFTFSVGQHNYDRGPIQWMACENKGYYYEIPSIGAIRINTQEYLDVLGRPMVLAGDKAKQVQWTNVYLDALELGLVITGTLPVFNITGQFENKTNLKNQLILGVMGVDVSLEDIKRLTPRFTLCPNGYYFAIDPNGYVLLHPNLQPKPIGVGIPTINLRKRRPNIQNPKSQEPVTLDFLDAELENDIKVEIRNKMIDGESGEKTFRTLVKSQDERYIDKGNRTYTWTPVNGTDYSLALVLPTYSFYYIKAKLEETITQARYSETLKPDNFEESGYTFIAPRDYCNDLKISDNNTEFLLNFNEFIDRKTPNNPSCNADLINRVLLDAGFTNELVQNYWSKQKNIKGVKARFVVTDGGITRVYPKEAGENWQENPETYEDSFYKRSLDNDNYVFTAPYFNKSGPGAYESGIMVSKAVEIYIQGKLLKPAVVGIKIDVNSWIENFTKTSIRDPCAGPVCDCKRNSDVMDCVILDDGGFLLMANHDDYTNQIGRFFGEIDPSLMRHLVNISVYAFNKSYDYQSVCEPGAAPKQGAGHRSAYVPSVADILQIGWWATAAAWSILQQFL
T4 sequence (P54289 947-1103 partner limits assumed): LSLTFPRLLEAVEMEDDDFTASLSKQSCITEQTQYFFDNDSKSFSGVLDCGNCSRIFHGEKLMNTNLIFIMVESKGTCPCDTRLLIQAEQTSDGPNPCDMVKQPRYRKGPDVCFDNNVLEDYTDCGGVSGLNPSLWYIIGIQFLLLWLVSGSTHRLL
Text: as §1
as §2, with “inward” for “tail”, “10” for “40 mV and ramping back to −80”, “hCav1.2” for “hERG”, “nifedipine.” for “E-4031.”

HepaRG cells = assay: ATP viability cytotoxicity assay in HepaRG cells; assay type: cell-based; conditions: 24 hours
Procedure: The cytotoxicity of compound 6 was measured using an ATP viability assay in HepaRG cells, with a five-point concentration-response curve (Table 8).
HepaRG cells were plated in a collagen coated 96-well plate overnight and treated the next day with test compounds and controls for 24 hours. Tamoxifen was used as a positive control compound for cytotoxicity (25 μM). After 24 hours, the plate was equilibrated to room temperature for 30 minutes and Cell Titer-Glo Reagent was added. Luminescence was measured using an EnSpire multimode plate reader. Data were reported as % cytotoxi city compared to vehicle treated control.
Cytotoxicity was determined by calculating the percentage of vehicle control: […]

S. aureus DNA gyrase = S. aureus DNA gyrase (Staphylococcus aureus, UniProt P20831); assay: Inhibition of DNA gyrase, biochemical assay (Inspiralis); conditions: S. aureus DNA gyrase; Inspiralis, Ltd.; read-out: Gyrase IC50
[4] = system: Fluoroquinolone-resistant S. aureus (11 strains); assay: MIC90, panel of fluoroquinolone-resistant MRSA isolates; assay type: cell-based, Staphylococcus aureus
[5] = system: Klebsiella pneumoniae LSI-2999; assay: MIC panel (Laboratory Specialists, Inc.), K. pneumoniae; assay type: cell-based; conditions: LSI2999, Cmpd. 6, CLSI broth microdilution
[6] = system: Streptococcus pneumoniae LSI-4246; assay: MIC panel (Laboratory Specialists, Inc.), S. pneumoniae LSI-4246; assay type: cell-based; conditions: LSI4246, Cmpd. 6, penicillin-resistant strain

T1 sequence (Q12809 whole entry): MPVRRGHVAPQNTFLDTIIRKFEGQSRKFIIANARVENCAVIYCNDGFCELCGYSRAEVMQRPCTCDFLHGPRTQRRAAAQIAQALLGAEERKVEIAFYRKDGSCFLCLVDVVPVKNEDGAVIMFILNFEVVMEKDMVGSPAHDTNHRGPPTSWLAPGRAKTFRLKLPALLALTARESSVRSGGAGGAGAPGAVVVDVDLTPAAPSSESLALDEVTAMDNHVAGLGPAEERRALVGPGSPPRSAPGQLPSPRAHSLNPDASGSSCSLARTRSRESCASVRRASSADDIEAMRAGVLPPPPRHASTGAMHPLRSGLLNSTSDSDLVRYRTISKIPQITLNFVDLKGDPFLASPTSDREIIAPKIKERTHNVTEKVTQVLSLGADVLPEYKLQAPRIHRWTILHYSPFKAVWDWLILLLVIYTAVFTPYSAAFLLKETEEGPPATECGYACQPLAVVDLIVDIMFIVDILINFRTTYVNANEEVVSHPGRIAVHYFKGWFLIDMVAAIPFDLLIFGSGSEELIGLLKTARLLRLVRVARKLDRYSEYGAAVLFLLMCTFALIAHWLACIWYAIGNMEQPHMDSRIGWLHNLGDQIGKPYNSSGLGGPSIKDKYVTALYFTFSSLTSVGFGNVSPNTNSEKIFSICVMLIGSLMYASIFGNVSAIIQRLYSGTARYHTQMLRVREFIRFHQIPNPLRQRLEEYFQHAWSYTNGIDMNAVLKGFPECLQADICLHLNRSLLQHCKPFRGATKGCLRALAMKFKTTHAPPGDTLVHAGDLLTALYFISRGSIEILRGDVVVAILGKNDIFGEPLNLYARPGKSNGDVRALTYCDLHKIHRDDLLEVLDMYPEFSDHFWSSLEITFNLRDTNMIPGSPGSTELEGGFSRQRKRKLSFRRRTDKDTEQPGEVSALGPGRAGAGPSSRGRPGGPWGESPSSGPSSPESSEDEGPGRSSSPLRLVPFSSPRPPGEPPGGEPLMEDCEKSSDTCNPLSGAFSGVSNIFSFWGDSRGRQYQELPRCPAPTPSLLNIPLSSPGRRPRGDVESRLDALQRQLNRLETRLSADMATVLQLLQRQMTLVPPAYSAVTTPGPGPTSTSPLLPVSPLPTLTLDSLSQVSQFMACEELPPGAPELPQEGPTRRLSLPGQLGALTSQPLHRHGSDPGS

COc1ccc2ncc(F)c(CC[C@@]3(O)CO[C@@H]4[C@@H](NCc5cc6c(cn5)OCCO6)CO[C@@H]43)c2n1 [Compound 6, (3R, 3aS,6S,6aR)-6-(((2,3-dihydro-[1,4]dioxino[2,36-c]pyridin-7-yl)methyl)amnino)-3-(2-(3-fluoro-6-methoxy-1,5-naphthyridin-4-yl)ethyl)hexahydrofuro[3,2-b]furan-3-ol]
% Inhibition hERG (tail current) ([1]; 3 μM): −2.4%
% Inhibition hERG (tail current) ([1]; 30 μM): 11.3%
% Inhibition hERG (tail current) ([1]; 100 μM): 39.0%
CYP1A2 inhibition (CYP1A2): Less than 50%
inhibition at 100 µM [2]: 68%
MIC (S. aureus ATCC 29213): 1 µg/mL (≈ 2.01 µM)
CYP2C19 inhibition (CYP2C19): Less than 50%
% Inhibition Cav1.2 (peak current) ([3]; 3 μM): 4.7%
% Inhibition Cav1.2 (peak current) ([3]; 30 μM): 23.3%
% Inhibition Cav1.2 (peak current) ([3]; 100 μM): 24.9%
% Cytotoxicity (HepaRG cells; 0.01 μM): 6%
% Cytotoxicity (HepaRG cells; 0.1 μM): 4%
% Cytotoxicity (HepaRG cells; 1 μM): 9%
% Cytotoxicity (HepaRG cells; 10 μM): 8%
IC50 (S. aureus DNA gyrase): 530 nM
MIC90 ([4]; Staphylococcus aureus, Cmpd. 6, MIC90): 2 µg/mL (≈ 4.01 µM)
MIC90 better than that of ciprofloxacin ([4]; panel of fluoroquinolone-resistant MRSA isolates): 16 fold
MIC [5]: 128 µg/mL (≈ 257 µM)
MIC [6]: ≤ 0.12 µg/mL
